Literature values, collected in article PMC8435859 (Frontiers in Cellular and Infection Microbiology, 2021).
Converted amounts (≈) assume the structure as drawn. Counter-ions that a name gives are not always drawn.

Experiments:
CYP2B6 = system: CYP2B6; parameters: method as in ref Cheng SenSung et al., Journal of Agricultural & Food Chemistry, 2012, 60(1):124-8; details: ref Cheng SenSung et al., Journal of Agricultural & Food Chemistry, 2012, 60(1):124-8; read-out: Ki, CYP2B6 inhibition; cited from earlier work
CYP3A4 = system: CYP3A4; parameters: method as in ref Cheng SenSung et al., Journal of Agricultural & Food Chemistry, 2012, 60(1):124-8; details: ref Cheng SenSung et al., Journal of Agricultural & Food Chemistry, 2012, 60(1):124-8; read-out: Ki, CYP3A4 inhibition; cited from earlier work
GABA uptake = system: GABA uptake; parameters: method as in Johnston G A R et al., Nature; details: ref Johnston G A R et al., Nature; read-out: IC50, inhibition of GABA uptake; cited from earlier work
EV71 = details: ref Choi HJ et al., Biomol Ther (Seoul). 2016 Sep 1;24(5):552-8; cited from earlier work
MDA-MB-231 = system: MDA-MB-231; parameters: method as in ref Sales SM et al., Biomedicine & Pharmacotherapy, 2018, 103:1577-1584; details: one value printed for MCF-7 & MDA-MB-231; ref Sales SM et al., Biomedicine & Pharmacotherapy, 2018, 103:1577-1584; read-out: IC50, decreased MDA-MB-231 survival; cited from earlier work
MCF-7 = system: MCF-7; parameters: method as in ref Sales SM et al., Biomedicine & Pharmacotherapy, 2018, 103:1577-1584; details: one value printed for MCF-7 & MDA-MB-231; ref Sales SM et al., Biomedicine & Pharmacotherapy, 2018, 103:1577-1584; read-out: IC50, decreased MCF-7 survival; cited from earlier work
H. pylori = system: H. pylori; parameters: method as in ref Sales SM et al., Biomedicine & Pharmacotherapy, 2018, 103:1577-1584; details: ref Sales SM et al., Biomedicine & Pharmacotherapy, 2018, 103:1577-1584; cited from earlier work

C[C@@H]1CC[C@H]2C(C)(C)[C@H]3C[C@@]12CC[C@@]3(C)O [Cedrol]
Ki (CYP2B6): 0.9 µM
Ki (CYP3A4): 3.4 µM

O=C(O)C1=CCCNC1 [Guvacine hydrochloride]
IC50 (GABA uptake): 10 µM

O=c1cc(-c2ccccc2)oc2c(O)c(O)cc(O)c12 [Norwogonin]
IC50, antiviral activity against Enterovirus 71 (EV71): Norwogonin, isolated from Scutellaria baicalensis Georgi, possesses antiviral activity against Enterovirus 71 (IC50: 31.83 μg/ml).

CCCCCCCCOC(=O)c1cc(O)c(O)c(O)c1 [Octyl gallate]
IC50 (MDA-MB-231): 40 µM
IC50 (MCF-7): 40 µM
minimum inhibitory concentration (MIC) against H. pylori (H. pylori): 125 µg/mL (≈ 443 µM)
